In PubChem BioAssay (NCI):
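Exposure lasted 48 hours, with cells grown in 96-well plates and compounds tested at five concentrations. At the TGI there is no net growth.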

Tests used:
Test in all cases: DTP human tumour cell line panel, 48 h
786-0 renal = tested on: 786-0 renal
A498 renal = tested on: A498 renal
ACHN renal = tested on: ACHN renal
BT-549 breast = tested on: BT-549 breast
CAKI-1 renal = tested on: CAKI-1 renal
COLO 205 colon = tested on: COLO 205 colon
DU-145 prostate = tested on: DU-145 prostate
EKVX NSCLC = tested on: EKVX NSCLC
HCC-2998 colon = tested on: HCC-2998 colon
HCT-116 colon = tested on: HCT-116 colon
HCT-15 colon = tested on: HCT-15 colon
HL-60(TB) leukemia = tested on: HL-60(TB) leukemia
HOP-62 NSCLC = tested on: HOP-62 NSCLC
HS 578T breast = tested on: HS 578T breast
HT29 colon = tested on: HT29 colon
IGROV1 ovarian = tested on: IGROV1 ovarian
K-562 leukemia = tested on: K-562 leukemia
KM12 colon = tested on: KM12 colon
LOX IMVI melanoma = tested on: LOX IMVI melanoma
MALME-3M melanoma = tested on: MALME-3M melanoma
MCF7 breast = tested on: MCF7 breast
MDA-MB-231 breast = tested on: MDA-MB-231 breast
MDA-MB-435 = tested on: MDA-MB-435
MDA-N = tested on: MDA-N
MOLT-4 leukemia = tested on: MOLT-4 leukemia
NCI-H226 lung = tested on: NCI-H226 lung
NCI-H23 lung = tested on: NCI-H23 lung
NCI-H460 lung = tested on: NCI-H460 lung
NCI-H522 lung = tested on: NCI-H522 lung
NCI/ADR-RES ovarian = tested on: NCI/ADR-RES ovarian
OVCAR-3 ovarian = tested on: OVCAR-3 ovarian
OVCAR-4 ovarian = tested on: OVCAR-4 ovarian
OVCAR-5 ovarian = tested on: OVCAR-5 ovarian
OVCAR-8 ovarian = tested on: OVCAR-8 ovarian
PC-3 prostate = tested on: PC-3 prostate
RPMI-8226 leukemia = tested on: RPMI-8226 leukemia
RXF 393 renal = tested on: RXF 393 renal
SF-268 CNS = tested on: SF-268 CNS
SF-295 CNS = tested on: SF-295 CNS
SK-MEL-2 melanoma = tested on: SK-MEL-2 melanoma
SK-MEL-28 melanoma = tested on: SK-MEL-28 melanoma
SK-MEL-5 melanoma = tested on: SK-MEL-5 melanoma
SN12C renal = tested on: SN12C renal
SNB-19 CNS = tested on: SNB-19 CNS
SNB-75 CNS = tested on: SNB-75 CNS
SR leukemia = tested on: SR leukemia
SW-620 colon = tested on: SW-620 colon
T-47D breast = tested on: T-47D breast
TK-10 renal = tested on: TK-10 renal
U251 CNS = tested on: U251 CNS
UACC-257 melanoma = tested on: UACC-257 melanoma
UACC-62 melanoma = tested on: UACC-62 melanoma
UO-31 renal = tested on: UO-31 renal
A549 NSCLC = tested on: A549 NSCLC
CCRF-CEM leukemia = tested on: CCRF-CEM leukemia
HOP-92 NSCLC = tested on: HOP-92 NSCLC
M14 melanoma = tested on: M14 melanoma
SF-539 CNS = tested on: SF-539 CNS
SK-OV-3 ovarian = tested on: SK-OV-3 ovarian

Measured: TGI

CNC(=S)Nc1sc2c(c1C#N)CCCC2
> 75 µM: 786-0 renal | A498 renal | ACHN renal | BT-549 breast | CAKI-1 renal | COLO 205 colon | DU-145 prostate | EKVX NSCLC | HCC-2998 colon | HCT-116 colon | HCT-15 colon | HL-60(TB) leukemia | HOP-62 NSCLC | HS 578T breast | HT29 colon | IGROV1 ovarian | K-562 leukemia | KM12 colon | LOX IMVI melanoma | MALME-3M melanoma | MCF7 breast | MDA-MB-231 breast | MDA-MB-435 | MDA-N | MOLT-4 leukemia | NCI-H226 lung | NCI-H23 lung | NCI-H460 lung | NCI-H522 lung | NCI/ADR-RES ovarian | OVCAR-3 ovarian | OVCAR-4 ovarian | OVCAR-5 ovarian | OVCAR-8 ovarian | PC-3 prostate | RPMI-8226 leukemia | RXF 393 renal | SF-268 CNS | SF-295 CNS | SK-MEL-2 melanoma | SK-MEL-28 melanoma | SK-MEL-5 melanoma | SN12C renal | SNB-19 CNS | SNB-75 CNS | SR leukemia | SW-620 colon | T-47D breast | TK-10 renal | U251 CNS | UACC-257 melanoma | UACC-62 melanoma | UO-31 renal

O=c1[nH]c(=O)n(C2CC(O)C(CO)O2)c2nc3cc4ccccc4cc3nc12 (stereo not drawn)
> 100 µM: 786-0 renal | A498 renal | A549 NSCLC | ACHN renal | BT-549 breast | CAKI-1 renal | CCRF-CEM leukemia | COLO 205 colon | DU-145 prostate | EKVX NSCLC | HCC-2998 colon | HCT-116 colon | HCT-15 colon | HOP-62 NSCLC | HOP-92 NSCLC | HS 578T breast | IGROV1 ovarian | K-562 leukemia | KM12 colon | LOX IMVI melanoma | M14 melanoma | MALME-3M melanoma | MCF7 breast | MDA-MB-231 breast | MDA-MB-435 | MDA-N | MOLT-4 leukemia | NCI-H226 lung | NCI-H23 lung | NCI-H460 lung | NCI-H522 lung | NCI/ADR-RES ovarian | OVCAR-3 ovarian | OVCAR-4 ovarian | OVCAR-5 ovarian | OVCAR-8 ovarian | PC-3 prostate | RPMI-8226 leukemia | RXF 393 renal | SF-268 CNS | SF-295 CNS | SF-539 CNS | SK-MEL-2 melanoma | SK-MEL-28 melanoma | SK-MEL-5 melanoma | SK-OV-3 ovarian | SN12C renal | SNB-19 CNS | SNB-75 CNS | SR leukemia | SW-620 colon | T-47D breast | TK-10 renal | U251 CNS | UACC-257 melanoma | UACC-62 melanoma | UO-31 renal

O=C1/C(=C/c2cc3c(=O)c4ccccc4sc3s2)NC(=S)N1c1ccccc1
49.6 µM: SR leukemia
> 100 µM: 786-0 renal | A498 renal | ACHN renal | BT-549 breast | CAKI-1 renal | COLO 205 colon | DU-145 prostate | EKVX NSCLC | HCC-2998 colon | HCT-116 colon | HCT-15 colon | HOP-62 NSCLC | HS 578T breast | HT29 colon | IGROV1 ovarian | K-562 leukemia | KM12 colon | LOX IMVI melanoma | MALME-3M melanoma | MCF7 breast | MDA-MB-231 breast | MDA-MB-435 | MDA-N | MOLT-4 leukemia | NCI-H226 lung | NCI-H23 lung | NCI-H460 lung | NCI-H522 lung | NCI/ADR-RES ovarian | OVCAR-3 ovarian | OVCAR-4 ovarian | OVCAR-5 ovarian | OVCAR-8 ovarian | PC-3 prostate | RPMI-8226 leukemia | RXF 393 renal | SF-268 CNS | SF-295 CNS | SK-MEL-2 melanoma | SK-MEL-28 melanoma | SK-MEL-5 melanoma | SN12C renal | SNB-19 CNS | SNB-75 CNS | SW-620 colon | T-47D breast | TK-10 renal | U251 CNS | UACC-257 melanoma | UACC-62 melanoma | UO-31 renal
66.9 µM: HL-60(TB) leukemia
